Test results reported in patent US20120045501A1, “CONNEXIN ENHANCES CHEMOTHERAPY-INCLUDED APOPTOSIS IN HUMAN CANCER CELLS INHIBITING TUMOR CELL PROLIFERATION” (Northwest Hospital, priority 2001, published 2012).
pIC50: −log10 of the molar value. Blank lines part the entries; values can stand above or below the compound they belong to.

Legend:
U251N23 cells [1] = experiment: MTT cell viability assay; format: cell-based; conditions: Homo sapiens, 144 h, day 6 after treatment, U251N23 (control-transfected)
Description: In vitro viability was determined by the 3-(4,5-dimethylthiazol-2yl)-2,5-diphenyltetrazolium bromide (MTT) colorimetric assay as described in (Huang et al., Cancer Res. 55:5054-5062 (1995)). Cells (1×10^3) were plated in triplicate in 96 well microplates overnight and treated with 5 different concentrations of VP16, Tax and DOX, respectively. […] Absorbance values at 570 nm were plotted as a measure of the relative number of cells. […] Both methods gave the identical results.
(§1) Values at OD 570 reflect the relative number of viable cells.

U251N23 cells [2] = experiment: Clonogenicity (cell survival) assay; format: cell-based, human
Description: (§2) The surviving cell fraction was determined by clonogenicity assay as previously described (Huang et al., J. Cell Biol. 133:211-220 (1996)). Cells were seeded at a density of 500 cells per 60 mm plate and incubated overnight and then treated with drugs; culture was then continued for 3 weeks. Clones were fixed in 4% formaldehyde-PBS and stained with Giemsa solution. Colonies containing more than 50 cells were counted and the fraction of surviving cells was calculated. The results represented the average of three separate experiments.
as §1

U251cx43-216 cells [3] = experiment: Clonogenicity (cell survival) assay; format: cell-based, human
Description: as §2, §1

U251cx43-216 cells [4] = experiment: MTT cell viability assay; conditions: Homo sapiens, 144 h
U251N23 cells [5] = experiment: Gap junction communication, Lucifer yellow dye transfer; format: cell-based, human; conditions: U251N23, GA 25 μM
Description: (§3) Gap junctional communication (GJC) was assayed by transfer of the fluorescent Lucifer yellow (LY) after single-cell micro-injection, as described previously (Huang et al., Cancer Res. 58:5089-5096 (1998)). Cells were observed under a fluorescence-inverted microscope after micro-injection at the given time points, and the number of neighboring cells labeled with fluorescent dye was recorded.
(§4) It was next determined whether cx43-mediated apoptosis was related to gap junctional communication (GJC). […] Since Lucifer yellow dye transfer may not accurately reflect the ability of intracellular substances to pass through gap junctions, apoptosis was examined in response to VP16 in the presence of α-Glycyrrhetinic acid (GA), which inhibits GJC (Davidson et al., Biochem. Biophys. Res. Commun. 134:29-36 (1986); Davidson and Baumgarten, J. Pharmacol. Exp. Ther. 266:1104-1107 (1988)). […] Consistent with previous studies, both cx43- and control-transfected cells poorly communicated each other as examined by Lucifer yellow dye transfer experiment. The effect of GA was not obvious due to poor GJC in untreated U251 cells. […] Thus, the difference in apoptosis is probably due to the presence of cx43 itself rather than GJC. Furthermore, cx43-transfected cells expressed only non-phosphorylated cx43 in both mock- and VP 16-treated cells. In contrast, when the same experimental procedure was used to detect cx43 in primary astrocytes and T51B cells, several phosphorylated isoforms were clearly observed (Huang et al., Cancer Res. 58:5089-5096 (1998)). It is generally believed that phosphorylated forms of cx43 are involved in GJC (Hossain et al., J. Cell Physiol. 174:66-77 (1998)). Therefore it is likely that cx43-mediated apoptosis in response to VP16 is not related to its gap junctional communication effect.

U251cx43-216 cells [6] = experiment: as above; format: cell-based, human; conditions: U251cx43-216, GA 25 μM
Description: as §3, §4

[7] = system: T51B rat liver epithelial cells; experiment: as above; format: cell-based
Description: as §3
as §4, with “In contrast, when the same experimental procedure was used to detect cx43 in primary astrocytes and T51B cells, several phosphorylated isoforms were clearly observed (Huang et al., Cancer Res. 58:5089-5096 (1998)). It is generally believed that phosphorylated forms of cx43 are involved in GJC (Hossain et al., J. Cell Physiol. 174:66-77 (1998)). Therefore it is likely that cx43-mediated apoptosis in response to VP16 is not related to its gap junctional communication effect.” left out

[8] = system: cx43- or control-transfected cells; experiment: Apoptosis in response to VP16 in the presence of GA; format: cell-based, human; conditions: cx43- and control-transfected cells
Text: as §4, with “Therefore it is likely that cx43-mediated apoptosis in response to VP16 is not related to its gap junctional communication effect.” left out

[9] = system: Cx43-transfected cells (U251cx43-216 and U251cx43-217); experiment: Apoptosis by Hoechst dye staining after Tax; format: cell-based, human
Description: (§5) The assay was performed as we previously described (Huang et al., Cell Death Differ. 5:96-106 (1998)). Briefly, cells were fixed in Carnoy's solution (methanol:glacial […]; 3:1) and stained with 5 μg/ml of bisbenzimide trihydrochloride (Hoechst 33258) for 20 min. The morphology of nuclei was then observed with a Zeiss (Thornwood, N.Y.) photomicroscope II. At least 500 nuclei in each cell line were counted. Experiments were repeated four times.
(§6) Cx43-transfected cells (U251cx43-216 and U251cx43-217) and control-transfected cells (U251N2 and U251N23) were treated with different concentrations of Tax (0, 10^−9, and 4×10^−9). Four days after treatment, cells were analyzed for apoptosis by Hoechst dye staining.

[10] = system: control-transfected cells (U251N2 and U251N23); experiment: Apoptosis by Hoechst dye staining after Tax; format: cell-based, human; conditions: 4×10^−9 M, four days after treatment
Description: as §5, §6

U251cx43-216 cells [11] = experiment: Soft agar colony formation assay; format: cell-based, human
Description: (§7) Soft agar assay were performed as described previously (Huang, et al., Cancer Res. 58:5089-5096 (1998); Huang, et al., Mol. Carcinog. 30:209-217 (2001); Huang, et al., Carcinogenesis 20:485-492 (1999)). Briefly, cx43-transfected cells and control-transfected cells were assayed by seeding 1,000 cells in 0.26% agar medium into 6 well plates previously lined with 0.65% agar medium. The plates (in duplicate and repeated twice) were cultured for 3-4 weeks in the presence of different treatments and then stained with p-iodotetrazolium violet for overnight before photography and counting. Colony size equal to or greater than 15,625 μm^2 was scored as positive.
(§8) To examine the effect of down-regulation of MCP-1 on the transformed growth, cx43-transfected and control-transfected clones were assayed for their anchorage-independent growth in soft agar in the presence of MCP-1.

U251cx43-217 cells = experiment: Soft agar colony formation assay; format: cell-based, human
Description: as §7, §8

cx43-transfected cells = experiment: Cell proliferation in presence of cytokine or conditioned medium; format: cell-based, human
Description: The experiment was performed as described in Huang et al., (Cancer Res. 55:5054-5062 (1995); and Oncogene 10:467-475 (1995)). Briefly, cells were seeded in 96-well plates. 24 hr later, cells were incubated in the presence of cytokine or conditioned medium for 48 hours. 0.5 μCi of ^3H-thymidine was added to each well and incubation was continuous for 24 hr. The incorporated ^3H-thymidine was then determined by a scintillation counter.
The down-regulation of MCP-1 in cx43-transfected cells raised the question of whether reversion of the transformed phenotype in cx43-transfected cell was mediated by the reduction of MCP-1 expression. To test this possibility, anti-MCP-1 neutralization antibody was added into the tissue culture medium to block the MCP-1 activity and to examine the cell proliferation by CyQUANT cell proliferation assay.

[12] = system: Cx43-transfected clones and control-transfected clones; experiment: Apoptosis in the presence of MCP-1 or anti-MCP-1 antibody; format: cell-based, human; conditions: normal culture conditions, low serum conditions or in response to chemotherapeutic drugs
Description: Cx43-transfected clones and control-transfected clones were assayed for apoptosis in the presence of MCP-1 or anti-MCP-1 antibody. […] Therefore, enhanced apoptosis under low serum conditions and decreased cell growth in cx43-transfected cells involves at least two separate pathways.

[13] = U251cx43-216, 1 × 10^−9, 3 weeks
[14] = U251cx43-216, 4 × 10^−9, 3 weeks
[15] = U251cx43-216, 4 × 10^−10, 3 weeks

pIC50 (U251N23 cells [1]): 8.75 | pIC50 (U251cx43-216 cells [4]): 9.09
Compound: COc1cccc2c1C(=O)c1c(O)c3c(c(O)c1C2=O)C[C@@](O)(C(=O)CO)C[C@@H]3O[C@H]1C[C@H](N)[C@H](O)[C@H](C)O1 [DOX, Doxorubicin]
Colony formation (colonies counted) (U251N23 cells [2]; U251N23, 1 × 10^−9, 3 weeks): 15 +/− 5 | Colony formation (colonies counted) (U251N23 cells [2]; U251N23, 4 × 10^−9, 3 weeks): 6 +/− 0 | Colony formation (colonies counted) (U251N23 cells [2]; U251N23, 4 × 10^−10, 3 weeks): 147 +/− 14 | Colony formation (colonies counted) (U251cx43-216 cells [3]; [13]): 6 +/− 1 | Colony formation (colonies counted) (U251cx43-216 cells [3]; [14]): 2 +/− 3 | Colony formation (colonies counted) (U251cx43-216 cells [3]; [15]): 70 +/− 6

Compound: CC1(C)[C@@H](O)CC[C@]2(C)[C@H]3C(=O)C=C4[C@@H]5C[C@@](C)(C(=O)O)CC[C@]5(C)CC[C@@]4(C)[C@]3(C)CC[C@@H]12 [GA, α-Glycyrrhetinic acid]
No. of Fluorescent Neighboring cells after GA treatment (U251N23 cells [5]; 5 min): 0.7 +/− 1.1 | No. of Fluorescent Neighboring cells after GA treatment (U251N23 cells [5]; 24 h): 2.2 +/− 3.7 | No. of Fluorescent Neighboring cells after GA treatment (U251N23 cells [5]; 48 h): 0.9 +/− 1.9 | No. of Fluorescent Neighboring cells after GA treatment (U251N23 cells [5]; 72 h): 2.4 +/− 4.1 | No. of Fluorescent Neighboring cells after GA treatment (U251cx43-216 cells [6]; 5 min): 0.6 +/− 1.3 | No. of Fluorescent Neighboring cells after GA treatment (U251cx43-216 cells [6]; 24 h): 0 +/− 0 | No. of Fluorescent Neighboring cells after GA treatment (U251cx43-216 cells [6]; 48 h): 0.6 +/− 1.1 | No. of Fluorescent Neighboring cells after GA treatment (U251cx43-216 cells [6]; 72 h): 0.1 +/− 0.3 | effect on GJC ([7]; T51B cells): completely blocked GJC | No. of Fluorescent Neighboring cells after GA treatment ([7]; T51B, GA 25 μM, 5 min): 0 +/− 0 | alteration of apoptosis in response to VP16 in the presence of α-Glycyrrhetinic acid [8]: No significant alteration of apoptosis

pIC50 (U251N23 cells [1]): 8.82 | pIC50 (U251cx43-216 cells [4]): 9.15
Compound: CC(=O)O[C@H]1C(=O)[C@@]2(C)[C@H]([C@H](OC(=O)c3ccccc3)[C@]3(O)C[C@H](OC(=O)[C@H](O)[C@@H](NC(=O)c4ccccc4)c4ccccc4)C(C)=C1C3(C)C)[C@]1(OC(C)=O)CO[C@@H]1C[C@@H]2O [Tax, Paclitaxel]
Colony formation (colonies counted) (U251N23 cells [2]; U251N23, 1 × 10^−9, 3 weeks): 37 +/− 6 | Colony formation (colonies counted) (U251N23 cells [2]; U251N23, 4 × 10^−9, 3 weeks): 16 +/− 2 | Colony formation (colonies counted) (U251N23 cells [2]; U251N23, 4 × 10^−10, 3 weeks): 108 +/− 9 | Colony formation (colonies counted) (U251cx43-216 cells [3]; [13]): 9 +/− 5 | Colony formation (colonies counted) (U251cx43-216 cells [3]; [14]): 4 +/− 3 | Colony formation (colonies counted) (U251cx43-216 cells [3]; [15]): 54 +/− 5 | increase in apoptosis, cx43-expressing vs control-transfected cells ([9]; Tax treatment, four days): 3- to 4 fold | cells displaying typical features of apoptosis ([9]; cx43-transfected cells, 4×10^−9 M, four days after treatment): about 65% | apoptotic cells [10]: about 17%

Compound: MCP-1: Monocyte chemotactic protein-1 (MCP-1) is a member of the CC chemokine family
Colony formation in soft agar (U251cx43-216 cells [11]; U251cx43-216, MCP-1 0.1 ng/ml): 18.0 ± 2.83 | Colony formation in soft agar (U251cx43-216 cells [11]; U251cx43-216, MCP-1 1 ng/ml): 37.5 ± 3.53 | Colony formation in soft agar (U251cx43-216 cells [11]; U251cx43-216, MCP-1 10 ng/ml): 28.5 ± 4.95 | Colony formation in soft agar (U251cx43-216 cells [11]; U251cx43-216, MCP-1 100 ng/ml): 36.0 ± 5.65 | Colony formation in soft agar (U251cx43-217 cells; U251cx43-217, MCP-1 0.1 ng/ml): 18.0 ± 2.83 | Colony formation in soft agar (U251cx43-217 cells; U251cx43-217, MCP-1 1 ng/ml): 24.5 ± 2.12 | Colony formation in soft agar (U251cx43-217 cells; U251cx43-217, MCP-1 10 ng/ml): 22.5 ± 3.53 | Colony formation in soft agar (U251cx43-217 cells; U251cx43-217, MCP-1 100 ng/ml): 20.5 ± 2.12 | effect on cell proliferation rate (cx43-transfected cells): specifically stimulated | effect on apoptosis [12]: did not have any effect
